Among the data in PubChem BioAssay AID1626 (SRMLSC, 2009) are IC50, IC90 and CC50 values, retold here.

A value given as a limit tells only on which side of the number the result lay.

This assay concerns M. tuberculosis H37Rv growth inhibition. Description: M. tuberculosis H37Rv growth inhibitors, H37Rv strain (AID 1626). The note with it: for IC90: measured here: IC90 against H37Rv; for CC50: measured here: Vero cell cytotoxicity.

By IC50 is commonly meant the point on the concentration scale where inhibition reaches its midpoint. The IC90 is the concentration at which the effect reaches the 90% level. A higher IC90 goes with weaker potency. Broadly, the CC50 is the concentration at which the toxic effect on the cells reaches its halfway point. Low values mean greater toxicity to the cells, high ones lower toxicity to the cells.

As for `Cc1[nH][nH]c(=O)c1C(c1ccc(-c2ccc(Cl)cc2)o1)c1c(C)[nH][nH]c1=O`, the IC50 was 3.69 µM, the IC90 is 17 µM and the CC50 was more than 40 µM.
Consider `O=C(NCc1ccco1)c1cc2n(n1)C(C(F)(F)F)CC(c1ccc(Cl)c(Cl)c1)N2` (configuration not stated), for which the IC90 is more than 100 µM and the CC50 is more than 40 µM.
`Cc1ccc(-c2csc(NC(=O)CSc3nc4ccccc4c(=O)n3CCCN(C)C)n2)cc1`: the IC50 was 7.67 µM, the IC90 was determined as 9.52 µM and the CC50 worked out at 12 µM.
As to `CCOC(=O)CSc1ncnc2c1cnn2-c1ccc(C)cc1C`, the IC50 is 1.44 µM and the IC90 is 2.48 µM.
In the case of `CCOC(=O)/C=C/C(=O)Nc1ccc(Oc2ccccc2)cc1`, the IC50 is 1.2 µM, the IC90 was more than 100 µM and the CC50 is more than 40 µM.
Regarding `CC(Oc1ccc2oc3ccccc3c2c1)C(=O)NC12CC3CC(CC(C3)C1)C2` (configuration not stated), the IC50 is 44.7 µM and the IC90 was more than 100 µM.
Regarding `O=C(Nc1nccs1)c1sc2ccccc2c1Cl`, the half-inhibitory concentration (IC50) was 15.1 µM, the IC90 is more than 100 µM and the CC50 was more than 40 µM.
On the same counts, the results for `CCCCCOC(=O)NCCOC(=O)Nc1ccc(C(=O)OCC)cc1` are less than 0.195 µM, more than 100 µM and more than 40 µM.
The matching figures for `O=C1C=CC(O)(c2cc(=O)c3c(O)cc(O)cc3o2)C=C1`: 3.87 µM, 6.68 µM and 6.81 µM.
The matching figures for `CCc1ccc(C2c3[nH]c4ccccc4c3CCN2C(=O)c2cc(C)nn2C)cc1` (configuration not stated): 22.2 µM, 31.9 µM and more than 40 µM.
In the case of `Cc1ccc(N2C(=O)C(F)(F)C2c2ccccc2)cc1` (configuration not stated), the IC50 was 4.38 µM and the IC90 amounted to 19.7 µM.
The matching figures for `CC(C)c1ccc(CNC(=O)C(=O)Nc2nccs2)cc1`: 49.8 µM and more than 100 µM.
Take `O=C(COC(=O)Cc1ccccc1)Nc1ccc(SC(F)F)cc1`: the half-inhibitory concentration (IC50) was 36.4 µM and the IC90 was more than 100 µM.
Turning to `N#Cc1ccc(-c2ccccc2)nc1SCC(=O)c1cc2ccccc2oc1=O`, the IC50 is 1.64 µM, the IC90 stood at 2.16 µM and the CC50 is more than 40 µM.
`CCN(CC)CCn1c(NC(=O)c2ccc(C(F)(F)F)cc2)nc2ccccc21` displayed a CC50 of more than 40 µM.
Take `c1ccc(CNc2nc(CN3CCOCC3)nc3scc(-c4ccccc4)c23)cc1`: the IC50 is 13 µM and the IC90 came to 21.9 µM.
On the same counts, the results for `CCCCCCCCn1cnc2c(N)c(C)c(C)cc21` are 15.9 µM and 21.4 µM.
Consider `CC/C(=C\C(=O)c1cccnc1)Nc1ccc(C)c(C)c1`, for which the CC50 was more than 40 µM.
With `O=C(O)/C=C/C(=O)Nc1ccc(-n2nccc2C(F)(F)F)cc1`, the IC90 was more than 100 µM.
Consider `CCCCCCCOc1ccc(OC(=O)c2cccnc2)cc1`, for which the IC50 is 6.32 µM, the IC90 is more than 100 µM and the CC50 worked out at 15.4 µM.
Turning to `CC1(C)CC(=O)C(C=Nc2ccc3c(c2)OCO3)=C(O)C1`, the IC90 was more than 100 µM.
For `COc1cnc(-c2ccccn2)nc1Sc1ccc(C)cc1`, the IC50 was less than 0.195 µM, the IC90 is 2.92 µM and the cytotoxic concentration (CC50) is 4.24 µM.
With `O=C(COC(=O)Cc1ccccc1F)Nc1ccc2c(c1)OCO2`, the IC90 was more than 100 µM.
Take `COc1ccc(CCNCC(O)Cn2c3ccccc3c3ccccc32)cc1OC` (configuration not stated): the IC50 was 10.6 µM, the IC90 is 15.2 µM and the 50% cytotoxic concentration (CC50) worked out at 11.8 µM.
On to `COC(=O)CN1C(c2cccc(Cl)c2)=Nc2ccc(Cl)cc2C1c1ccccc1` (configuration not stated), for which the IC50 was 11.9 µM and the IC90 came to 13.6 µM.
`O=C(/C=C/c1ccccc1F)c1cccc([N+](=O)[O-])c1`: the IC50 is 6.24 µM, the IC90 is 6.73 µM and the CC50 is more than 40 µM.
The matching figures for `Cc1cc(C)c(C2C3=C(Nc4c2c(C)nn4-c2ccccn2)c2ccccc2C3=O)c(C)c1` (configuration not stated): 5.63 µM, 8.83 µM and more than 40 µM.
